Active and inactive are the calls of the source. The rule behind the calls is not given here.
Experiments:
[1] = molecular target: Aurora kinase B (Homo sapiens) (UniProt Q96GD4); assay: Inhibition of AURKB (unknown origin) at 10 uM by Ambit Kinomescan binding assay
[2] = molecular target: Hepatocyte growth factor receptor (Homo sapiens) (UniProt P08581); assay: Inhibition of MET ACT labeling site in human Huh-7 cells at 1 uM by KiNativ Profiling analysis relative to control; format: cell-based
[3] = molecular target: Ribosomal protein S6 kinase alpha-3 (Homo sapiens) (UniProt P51812); assay: Inhibition of RSK2 Domain 2 K2 labeling site harbouring DLKPSNILYVDESGNPESIR in human Huh-7 cells at 10 uM by KiNativ Profiling analysis relative to control; format: cell-based
[4] = molecular target: T1, Serine/threonine-protein kinase tousled-like 1 (Homo sapiens) (UniProt Q9UKI8); assay: Inhibition of TLK1 (unknown origin) at 1 uM by Ambit Kinomescan binding assay relative to control
T1 sequence (whole entry): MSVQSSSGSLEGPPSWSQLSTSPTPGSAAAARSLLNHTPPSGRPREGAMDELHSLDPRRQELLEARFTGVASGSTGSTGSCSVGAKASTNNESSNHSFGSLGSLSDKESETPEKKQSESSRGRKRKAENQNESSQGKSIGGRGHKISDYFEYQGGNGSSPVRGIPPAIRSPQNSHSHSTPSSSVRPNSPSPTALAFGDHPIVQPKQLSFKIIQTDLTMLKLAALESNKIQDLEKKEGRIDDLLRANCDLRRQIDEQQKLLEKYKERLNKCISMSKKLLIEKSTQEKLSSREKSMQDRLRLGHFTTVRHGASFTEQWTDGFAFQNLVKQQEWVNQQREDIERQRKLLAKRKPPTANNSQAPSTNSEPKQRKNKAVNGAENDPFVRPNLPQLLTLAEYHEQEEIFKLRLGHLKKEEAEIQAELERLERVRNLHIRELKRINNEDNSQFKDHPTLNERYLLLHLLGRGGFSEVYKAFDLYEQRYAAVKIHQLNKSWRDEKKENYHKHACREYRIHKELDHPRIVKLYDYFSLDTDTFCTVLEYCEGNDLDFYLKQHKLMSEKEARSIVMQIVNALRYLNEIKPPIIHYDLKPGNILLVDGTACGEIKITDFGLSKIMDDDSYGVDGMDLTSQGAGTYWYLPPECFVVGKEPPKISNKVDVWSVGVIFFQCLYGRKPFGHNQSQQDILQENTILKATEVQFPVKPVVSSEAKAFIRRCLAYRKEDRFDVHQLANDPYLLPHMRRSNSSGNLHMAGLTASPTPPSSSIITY

[5] = molecular target: Serine/threonine-protein kinase ULK2 (Homo sapiens) (UniProt Q8IYT8); assay: Inhibition of ULK2 (unknown origin) at 1 uM by Ambit Kinomescan binding assay relative to control
[6] = molecular target: T2, Atrial natriuretic peptide receptor 2 (Homo sapiens) (UniProt P20594); assay: Inhibition of ANPb Lys2 labeling site in human A-375 cells at 5 uM by KiNativ Profiling analysis relative to control; format: cell-based
T2 sequence (whole entry): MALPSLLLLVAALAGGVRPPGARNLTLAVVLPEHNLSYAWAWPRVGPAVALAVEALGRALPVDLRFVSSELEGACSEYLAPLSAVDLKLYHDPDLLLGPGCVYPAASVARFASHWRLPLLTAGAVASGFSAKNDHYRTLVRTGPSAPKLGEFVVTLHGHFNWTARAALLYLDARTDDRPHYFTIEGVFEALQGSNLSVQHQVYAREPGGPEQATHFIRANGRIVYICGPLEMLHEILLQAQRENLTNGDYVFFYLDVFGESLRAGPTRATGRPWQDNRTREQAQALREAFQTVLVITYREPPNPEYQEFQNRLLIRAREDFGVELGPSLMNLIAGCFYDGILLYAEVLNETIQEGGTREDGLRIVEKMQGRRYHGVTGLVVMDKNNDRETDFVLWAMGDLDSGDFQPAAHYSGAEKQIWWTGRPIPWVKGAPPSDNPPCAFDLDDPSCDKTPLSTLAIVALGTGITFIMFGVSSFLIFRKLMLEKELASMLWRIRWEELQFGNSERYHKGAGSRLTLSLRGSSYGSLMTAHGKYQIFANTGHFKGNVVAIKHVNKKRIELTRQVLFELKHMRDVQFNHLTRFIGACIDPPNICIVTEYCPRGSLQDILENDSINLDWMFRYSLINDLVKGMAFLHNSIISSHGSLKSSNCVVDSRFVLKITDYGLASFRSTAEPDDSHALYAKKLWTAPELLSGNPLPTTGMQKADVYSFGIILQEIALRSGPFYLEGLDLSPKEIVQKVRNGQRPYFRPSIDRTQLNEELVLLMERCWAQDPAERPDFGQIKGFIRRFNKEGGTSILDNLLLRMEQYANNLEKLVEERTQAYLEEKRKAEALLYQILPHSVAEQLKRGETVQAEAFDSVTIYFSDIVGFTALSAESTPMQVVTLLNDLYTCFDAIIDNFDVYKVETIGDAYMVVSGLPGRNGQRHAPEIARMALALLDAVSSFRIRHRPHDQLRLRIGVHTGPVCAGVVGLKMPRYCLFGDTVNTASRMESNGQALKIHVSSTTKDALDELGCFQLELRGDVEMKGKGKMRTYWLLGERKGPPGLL

[7] = molecular target: T3, Phosphatidylinositol 5-phosphate 4-kinase type-2 gamma (Homo sapiens) (UniProt Q8TBX8); assay: Inhibition of PIP4K2C ATP labeling site harbouring VKELPTLK in human A-375 cells at 0.05 uM by KiNativ Profiling analysis relative to control; format: cell-based
T3 sequence (whole entry): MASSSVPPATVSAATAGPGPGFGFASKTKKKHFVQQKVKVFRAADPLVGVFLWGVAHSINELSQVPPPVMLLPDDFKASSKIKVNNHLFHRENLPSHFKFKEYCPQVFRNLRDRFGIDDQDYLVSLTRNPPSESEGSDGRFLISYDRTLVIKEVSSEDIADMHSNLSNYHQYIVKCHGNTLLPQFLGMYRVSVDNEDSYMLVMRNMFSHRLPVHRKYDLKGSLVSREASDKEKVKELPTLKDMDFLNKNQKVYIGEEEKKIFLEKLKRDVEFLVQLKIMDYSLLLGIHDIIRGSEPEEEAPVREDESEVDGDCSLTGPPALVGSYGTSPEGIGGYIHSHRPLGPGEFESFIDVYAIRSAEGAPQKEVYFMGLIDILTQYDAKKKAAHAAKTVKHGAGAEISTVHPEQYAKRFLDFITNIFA

[8] = molecular target: Mitogen-activated protein kinase 9 (Homo sapiens, UniProt P45984); assay: Inhibition of JNK2 (unknown origin) at 1 uM by Ambit Kinomescan binding assay relative to control
[9] = molecular target: STE20-like serine/threonine-protein kinase (Homo sapiens) (UniProt Q9H2G2); assay: Inhibition of SLK Lys1 labeling site in human A-375 cells at 0.5 uM by KiNativ Profiling analysis relative to control; format: cell-based
[10] = molecular target: Microtubule-associated serine/threonine-protein kinase 1 (Homo sapiens) (UniProt Q9Y2H9); assay: Inhibition of MAST1 Lys2 labeling site in human Huh-7 cells at 1 uM by KiNativ Profiling analysis relative to control

Sequence of STE20-like serine/threonine-protein kinase (Homo sapiens) (Q9H2G2 whole entry, looked up): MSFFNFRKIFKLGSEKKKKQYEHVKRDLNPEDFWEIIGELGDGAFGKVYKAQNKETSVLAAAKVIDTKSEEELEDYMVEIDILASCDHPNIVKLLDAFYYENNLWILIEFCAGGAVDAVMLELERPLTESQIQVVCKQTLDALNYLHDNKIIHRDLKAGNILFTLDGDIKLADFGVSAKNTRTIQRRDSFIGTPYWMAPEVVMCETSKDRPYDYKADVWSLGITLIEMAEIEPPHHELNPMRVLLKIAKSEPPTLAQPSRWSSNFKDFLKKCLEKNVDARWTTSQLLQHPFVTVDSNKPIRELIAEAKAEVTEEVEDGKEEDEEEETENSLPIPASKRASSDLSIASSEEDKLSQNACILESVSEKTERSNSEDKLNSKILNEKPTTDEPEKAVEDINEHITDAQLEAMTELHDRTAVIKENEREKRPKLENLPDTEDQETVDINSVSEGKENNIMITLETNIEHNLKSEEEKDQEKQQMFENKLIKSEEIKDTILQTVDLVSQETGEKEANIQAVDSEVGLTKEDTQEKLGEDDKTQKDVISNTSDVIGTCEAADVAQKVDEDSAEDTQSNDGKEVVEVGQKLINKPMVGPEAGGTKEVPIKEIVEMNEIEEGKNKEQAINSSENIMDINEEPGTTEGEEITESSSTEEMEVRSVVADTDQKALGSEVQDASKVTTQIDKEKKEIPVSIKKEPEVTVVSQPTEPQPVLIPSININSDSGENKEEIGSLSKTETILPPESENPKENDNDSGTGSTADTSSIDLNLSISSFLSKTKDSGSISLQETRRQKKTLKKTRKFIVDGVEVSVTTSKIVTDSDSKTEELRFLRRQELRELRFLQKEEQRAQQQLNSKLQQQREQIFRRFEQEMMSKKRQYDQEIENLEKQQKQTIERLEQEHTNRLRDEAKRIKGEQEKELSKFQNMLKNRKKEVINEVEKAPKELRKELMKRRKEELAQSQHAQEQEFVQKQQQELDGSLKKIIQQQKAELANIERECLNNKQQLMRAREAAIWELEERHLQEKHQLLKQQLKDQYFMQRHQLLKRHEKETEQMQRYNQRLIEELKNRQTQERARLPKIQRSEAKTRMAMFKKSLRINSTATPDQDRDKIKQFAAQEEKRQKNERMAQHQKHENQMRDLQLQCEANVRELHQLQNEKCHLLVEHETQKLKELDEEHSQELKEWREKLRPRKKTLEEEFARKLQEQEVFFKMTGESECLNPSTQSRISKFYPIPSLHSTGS
Sequence of Serine/threonine-protein kinase ULK2 (Homo sapiens) (Q8IYT8 whole entry): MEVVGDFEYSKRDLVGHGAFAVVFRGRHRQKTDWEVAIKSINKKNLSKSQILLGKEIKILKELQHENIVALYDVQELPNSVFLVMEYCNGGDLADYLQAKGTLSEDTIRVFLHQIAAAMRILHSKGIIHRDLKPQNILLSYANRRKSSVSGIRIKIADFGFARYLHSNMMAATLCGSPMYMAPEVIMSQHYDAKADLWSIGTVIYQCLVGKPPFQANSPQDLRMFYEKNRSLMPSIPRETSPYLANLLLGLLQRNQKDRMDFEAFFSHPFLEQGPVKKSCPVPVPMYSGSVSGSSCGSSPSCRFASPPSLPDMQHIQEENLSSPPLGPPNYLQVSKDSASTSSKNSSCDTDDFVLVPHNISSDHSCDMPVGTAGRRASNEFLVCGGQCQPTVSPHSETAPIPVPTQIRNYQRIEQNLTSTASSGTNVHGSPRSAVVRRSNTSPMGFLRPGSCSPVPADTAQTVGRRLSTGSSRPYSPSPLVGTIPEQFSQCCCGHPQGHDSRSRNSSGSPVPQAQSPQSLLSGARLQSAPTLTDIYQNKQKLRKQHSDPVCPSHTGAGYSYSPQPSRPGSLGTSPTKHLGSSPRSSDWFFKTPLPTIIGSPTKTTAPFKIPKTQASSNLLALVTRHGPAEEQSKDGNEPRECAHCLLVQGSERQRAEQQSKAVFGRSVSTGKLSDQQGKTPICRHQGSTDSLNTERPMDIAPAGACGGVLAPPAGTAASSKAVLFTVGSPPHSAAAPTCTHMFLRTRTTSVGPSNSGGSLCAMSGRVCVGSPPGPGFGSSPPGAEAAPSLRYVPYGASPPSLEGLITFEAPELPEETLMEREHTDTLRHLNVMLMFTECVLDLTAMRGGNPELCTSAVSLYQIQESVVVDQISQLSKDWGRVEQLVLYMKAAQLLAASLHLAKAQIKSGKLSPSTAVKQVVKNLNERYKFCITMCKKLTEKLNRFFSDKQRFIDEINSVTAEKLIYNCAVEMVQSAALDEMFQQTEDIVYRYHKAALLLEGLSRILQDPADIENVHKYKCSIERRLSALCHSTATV
Sequence of Hepatocyte growth factor receptor (Homo sapiens) (P08581 whole entry, the tested form may be a part): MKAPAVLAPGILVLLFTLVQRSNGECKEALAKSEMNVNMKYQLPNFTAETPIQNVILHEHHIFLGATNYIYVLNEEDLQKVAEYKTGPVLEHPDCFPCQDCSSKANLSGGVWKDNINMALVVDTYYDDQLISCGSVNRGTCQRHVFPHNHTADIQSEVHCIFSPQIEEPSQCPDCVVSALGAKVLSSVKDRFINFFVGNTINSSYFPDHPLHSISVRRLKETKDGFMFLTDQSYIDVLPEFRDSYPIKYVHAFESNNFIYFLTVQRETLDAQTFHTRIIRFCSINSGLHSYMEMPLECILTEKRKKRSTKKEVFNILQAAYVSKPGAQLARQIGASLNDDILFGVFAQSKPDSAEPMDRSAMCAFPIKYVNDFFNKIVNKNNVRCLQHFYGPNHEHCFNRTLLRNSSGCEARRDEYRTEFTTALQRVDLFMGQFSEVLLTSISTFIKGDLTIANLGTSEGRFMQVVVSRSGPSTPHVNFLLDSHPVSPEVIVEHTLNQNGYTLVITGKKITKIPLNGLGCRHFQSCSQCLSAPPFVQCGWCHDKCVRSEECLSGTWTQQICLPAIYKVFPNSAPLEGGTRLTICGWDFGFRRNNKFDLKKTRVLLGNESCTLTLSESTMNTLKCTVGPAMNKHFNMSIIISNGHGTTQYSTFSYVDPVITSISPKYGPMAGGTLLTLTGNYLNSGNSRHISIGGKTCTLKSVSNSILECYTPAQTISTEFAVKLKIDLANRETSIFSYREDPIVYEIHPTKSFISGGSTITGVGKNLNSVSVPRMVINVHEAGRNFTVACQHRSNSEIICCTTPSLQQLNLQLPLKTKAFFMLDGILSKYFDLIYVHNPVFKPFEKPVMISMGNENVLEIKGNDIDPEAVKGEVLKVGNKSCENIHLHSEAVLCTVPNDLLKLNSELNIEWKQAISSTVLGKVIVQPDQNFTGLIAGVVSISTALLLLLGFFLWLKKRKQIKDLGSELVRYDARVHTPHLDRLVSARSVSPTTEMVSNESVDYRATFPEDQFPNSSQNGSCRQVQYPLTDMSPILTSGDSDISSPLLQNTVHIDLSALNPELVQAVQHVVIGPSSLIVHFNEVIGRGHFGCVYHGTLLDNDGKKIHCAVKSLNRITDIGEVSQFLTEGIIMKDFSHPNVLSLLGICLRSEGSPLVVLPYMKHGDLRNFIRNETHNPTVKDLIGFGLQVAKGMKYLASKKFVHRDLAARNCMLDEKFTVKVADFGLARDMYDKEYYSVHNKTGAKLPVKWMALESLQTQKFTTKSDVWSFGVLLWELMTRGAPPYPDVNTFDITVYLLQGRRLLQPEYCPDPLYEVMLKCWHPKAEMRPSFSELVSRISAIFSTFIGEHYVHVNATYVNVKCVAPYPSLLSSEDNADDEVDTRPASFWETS
Sequence of Ribosomal protein S6 kinase alpha-3 (Homo sapiens) (P51812 whole entry, the tested form may be a part): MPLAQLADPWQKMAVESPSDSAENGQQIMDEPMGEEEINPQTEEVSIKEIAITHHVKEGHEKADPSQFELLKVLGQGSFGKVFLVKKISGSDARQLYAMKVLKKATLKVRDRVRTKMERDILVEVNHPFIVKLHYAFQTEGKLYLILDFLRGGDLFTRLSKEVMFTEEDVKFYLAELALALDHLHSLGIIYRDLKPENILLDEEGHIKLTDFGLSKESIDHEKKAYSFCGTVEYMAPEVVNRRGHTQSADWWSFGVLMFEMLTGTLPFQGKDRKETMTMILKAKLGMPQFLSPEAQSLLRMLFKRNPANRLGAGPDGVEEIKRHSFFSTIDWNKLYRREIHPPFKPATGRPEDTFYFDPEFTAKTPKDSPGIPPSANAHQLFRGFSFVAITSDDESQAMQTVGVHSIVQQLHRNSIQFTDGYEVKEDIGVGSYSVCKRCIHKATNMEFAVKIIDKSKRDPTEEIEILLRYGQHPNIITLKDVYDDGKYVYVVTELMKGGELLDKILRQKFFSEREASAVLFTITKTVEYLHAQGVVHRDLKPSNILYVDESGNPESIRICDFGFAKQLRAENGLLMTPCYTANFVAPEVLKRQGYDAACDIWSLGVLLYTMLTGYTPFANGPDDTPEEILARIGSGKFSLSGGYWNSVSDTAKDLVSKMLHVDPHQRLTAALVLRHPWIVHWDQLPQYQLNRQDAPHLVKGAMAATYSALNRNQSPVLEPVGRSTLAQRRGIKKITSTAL
Sequence of Aurora kinase B (Homo sapiens) (Q96GD4 whole entry): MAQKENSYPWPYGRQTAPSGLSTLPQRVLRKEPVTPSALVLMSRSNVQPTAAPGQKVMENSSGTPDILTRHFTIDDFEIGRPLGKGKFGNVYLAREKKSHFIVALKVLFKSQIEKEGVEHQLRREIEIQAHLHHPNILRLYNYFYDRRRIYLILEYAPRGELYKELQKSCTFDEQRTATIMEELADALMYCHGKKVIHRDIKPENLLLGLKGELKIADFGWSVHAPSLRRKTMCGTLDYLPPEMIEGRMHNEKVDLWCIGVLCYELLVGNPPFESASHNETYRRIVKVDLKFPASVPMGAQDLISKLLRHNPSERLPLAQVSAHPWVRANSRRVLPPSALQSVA

SMILES: CCN1CCN(Cc2ccc(NC(=O)c3ccc(C)c(Oc4ccnc5[nH]ccc45)c3)cc2C(F)(F)F)CC1
- inhibition [1]: inactive
- inhibition [2]: 15.5%
- inhibition [3]: 14.5%

SMILES: CCN1CCN(Cc2ccc(NC(=O)c3ccc(C)c(/C=C/c4cnc5[nH]ccc5c4OC)c3)cc2C(F)(F)F)CC1
- inhibition [4]: 79%
- inhibition [5]: 81%
- inhibition [6]: -8.8%
- inhibition [7]: -8.6%
- inhibition [8]: 6.6%
- inhibition [9]: 6.8%

SMILES: CNc1cc(Oc2cc(C(=O)Nc3cc(N4CCN(C)CC4)cc(C(F)(F)F)c3)ccc2C)ncn1
- inhibition [10]: 53.8%

From ChEMBL document CHEMBL5696442, “Discovery of type II inhibitors of TGFβ-activated kinase 1 (TAK1) and mitogen-activated protein kinase kinase kinase kinase 2 (MAP4K2)” (J Med Chem, 2015)
